This note sets out measurements from patent US4552888A, “Ascorbic acid ethers in angiogene” (Eli Lilly and Company, priority 1983, dated 1985).

Molecules are shown by their SMILES. Structures can show the parent of a compound that is named as a salt. Where two headings read alike, the source gives them in different places.

For orientation: pKa means the negative logarithm of the acid dissociation constant.

The nature of data set [1]: pKa by titration. Format: physicochemical.
Data set [2] concerns angiogenesis factor. Nature of the data set: Inhibition of angiogenesis factor (3683 Morris hepatoma lysosomal-mitochondrial pellet) induced serpentine vessels in mice. Format: in vivo, mice (SPF/ND4 female). The protocol:
Lysosomal-mitochondrial pellets containing angiogenesis factor are prepared from 3683 Morris hepatoma. The pellet is diluted with 7-8 ml. of 15% ficoll. With this dilution, 8-10 serpentine vessels will be produced per 0.2 cc. injection as described below for the control group.
Next, 15 SPF/ND4 female mice weighing 20-22 g. are shaved on the left side and then divided into three groups of five each. One group (drug group) is injected subcutaneously and laterally with 0.20 cc. of the lysosomal-mitochondrial preparation diluted with 15% ficoll. This group of mice is then dosed individually by the intraperitoneal route with 0.5 cc. of a solution or suspension in a standard vehicle containing the compound under test, usually at an initial dose level of 300 mg./kg. If this dose level is toxic, two-fold dilutions are made until all mice survive a single dose. The second group of mice (control group) is injected subcutaneously and laterally with 0.2 cc. of the lysosomal-mitochondrial suspension diluted with 15% ficoll and dosed intraperitoneally with 0.5 cc. of the vehicle alone. The third group (negative control) is injected with ficoll solution only (no treatment with drug or vehicle). The mice are sacrificed after 24 hours. Each mouse is placed on its side on a dissecting board with the shaved side up. Starting at the flank, the skin is cut straight to the back of the animal. A similar cut is made behind the front leg. Then the skin is cut along the back making a flap of about one inch by two inches. The skin is carefully separated from the connective tissue using forceps and a scalpel. The skin flap is then laid back exposing the lysosomal-mitochondrial implant which is attached to the skin. The skin flap is gently flattened out and with the use of a binocular dissecting scope, serpentine vessels are observed around the lysosomal-mitochondrial implant and their number counted. All observations of the number of serpentine vessels are made at the same power of the microscope (1X). The average number of serpentine vessels for each group is calculated. The percent inhibition is then calculated according to the following equation. [formula] where sv=average number of serpentine vessels.
If the negative control group described above has any serpentine vessels, the test is invalid due to contamination of the ficoll solution.
Table I covers compounds according to formula I above in which R^2 and R^3 are both H, table II covers compounds in which R^2 and R^3 form a 1-methylethylidene group, and Table III compounds in which R^2 plus R^3 equal a benzylidene group or other group.
One of the compounds of this invention, 3-O-n-octadecyl-5,6-O-(1-methylethylidene)-L-ascorbic acid was tested at a series of dose levels for its ability to inhibit tumor angiogenesis and the results of these tests are set forth in Table IV.

Setting [3] is: Mus musculus, ip, 24 h, Table 2, i.p., dose 25 mg./kg., 24 hours, read-out: % inhibition (serpentine vessels).
The mark [4] stands for this setting: Mus musculus, ip, 24 h, Table 3, 150 mg./kg. dose intraperitoneally.
The mark [5] stands for this setting: Mus musculus, ip, 24 h, Table 1.
Setting [6] is: Mus musculus, ip, 24 h, Table 1, i.p., dose 25 mg./kg., 24 hours, read-out: average % inhibition (serpentine vessels).
[7] abbreviates: Table 2, i.p., dose 10 mg./kg., 24 hours.

On to `CCCCCCCCCCCCCCCCCCOC1=C(O)C(=O)O[C@@H]1[C@H](O)CO` (relative stereo) [3-O-n-octadecyl isoascorbic acid], for which the pKa in data set [1] (read-out: pKa) was 11.6. On to `CC1(C)OC[C@@H]([C@H]2OC(=O)C(OCCCCC#N)=C2OCCCCC#N)O1` [2,3-O-bis(4-cyanobutyl)-5,6-O-(1-methylethylidene)-L-ascorbic acid], for which the titratable group entry in data set [1] is “No titratable group”.

In data set [2] (Mus musculus, ip, 24 h, Table 2, dose 37.5 mg./kg.), `CC1(C)OC[C@@H]([C@H]2OC(=O)C(OCc3ccc(F)cc3)=C2OCc2ccc(F)cc2)O1` [2,3-O-bis(4-fluorobenzyl)-5,6-O-(1-methylethylidene)-L-ascorbic acid] had an inhibition in vivo at 37.5 mg/kg of 45%. Further, the titratable group result in data set [1] was “No titratable group”. As for `CCCCCCCCCCCCCCCCCCOC1=C(OCCCCCCCCCCCCCCCCCC)[C@@H]([C@@H]2COC(C)(C)O2)OC1=O` [2,3-O-bis(n-octadecy-5,6-O-(1-methylethylidene)-L-ascorbic acid], the inhibition in vivo at 25 mg/kg in data set [2] (setting [3]) was in the range of 18 to 85%. The titratable group result in data set [1] is “No titratable group”. With `CCCCCCCCCCCCCCCOC1=C(OCCCCCCCCCCCCCCC)[C@@H]([C@@H]2COC(C)(C)O2)OC1=O` [2,3-O-bis(n-pentadecyl)-5,6-O-(1-methylethylidene)-L-ascorbic acid], in data set [1], the titratable group result is listed as “No titratable groups”. For the compound `Cc1ccccc1COC1=C(OCc2ccccc2C)[C@@H]([C@@H]2COC(C)(C)O2)OC1=O` [2,3-bis(O-2-methylbenzyl)-5,6-O-(1-methylethylidene-L-ascorbic acid], the titratable group result in data set [1] was “No titratable group”. `CCCCCCCCCCCCCCCCOC1=C(OCCCCCCCCCCCCCCCC)[C@@H]([C@@H](O)CO)OC1=O` [2,3-di-(O-n-hexadecyl)-L-ascorbic acid]: the titratable group result in data set [1] is recorded as “no titratable group”. `CCCCCCCCCCCCCCCCCCOC1=C(OCCCN(C)C)C(=O)O[C@@H]1[C@@H](O)CO` [2-O-(3-dimethylaminopropyl)-3-O-n-octadecyl-L-ascorbic acid hydrochloride]: the pKa in data set [1] (read-out: pKa) worked out at 8. With `COCCOC1=C(O)C(=O)O[C@@H]1[C@@H]1COC(c2ccccc2)O1` (stereo partly drawn) [3-(2-methoxyethyl)-5,6-O-benzylidine-L-ascorbic acid], the inhibition in vivo at 150 mg/kg in data set [2] (setting [4]) came out at 31%. As to `COc1ccc(OC)c(C(=O)COC2=C(O)C(=O)O[C@@H]2[C@@H]2COC(C)(C)O2)c1` [3-O-(2,5-dimethoxyphenacyl)-5,6-O-(1-methylethylidene)-L-ascorbic acid], the pKa in data set [1] (read-out: pKa) amounted to 10.6.

As to `CC1(C)OC[C@@H]([C@H]2OC(=O)C(O)=C2OCCOCCBr)O1` [3-O-(2-bromoethoxyethyl)-5,6-O-(1-methylethylidene)-L-ascorbic acid], the inhibition in vivo at 240 mg/kg in data set [2] (Mus musculus, ip, 24 h, Table 2, dose 240 mg./kg.) turned out to be 71%. In data set [1] (read-out: pKa), the pKa amounted to 10.4. Turning to `O=C1O[C@H]([C@@H](O)CO)C(OCCOCCBr)=C1O` [3-O-(2-bromoethoxyethyl)-L-ascorbic acid], in data set [2] (setting [5]), the inhibition in vivo at 300 mg/kg was 36%. Take `COCCOC1=C(O)C(=O)O[C@@H]1[C@@H]1COC(C)(C)O1` [3-O-(2-methoxyethyl)-5,6-O-(1-methylethylidene)-L-ascorbic acid]: the “% inhibition (serpentine vessels)” value in data set [2] (Table 2, i.p., range dose 10-240 mg./kg., 24 hours) is listed as 28-61%. The compound also gave a pKa in data set [1] of 10.31. In the case of `Cc1ccccc1COC1=C(O)C(=O)O[C@@H]1[C@@H](O)CO` [3-O-(2-methylbenzyl)-L-ascorbic acid], the pKa in data set [1] (read-out: pKa) amounted to 10.8.

`CC1(C)OC[C@@H]([C@H]2OC(=O)C(O)=C2OCCN2C(=O)c3ccccc3C2=O)O1` [3-O-(2-phthalimidoethyl)-5,6-O-(1-methylethylidene)-L-ascorbic acid] displayed an inhibition in vivo at 120 mg/kg in data set [2] (Mus musculus, ip, 24 h, Table 2, dose 120 mg./kg.) of 30%. For the same compound, the pKa in data set [1] (read-out: pKa) was determined as 10.3. In the case of `O=C1O[C@H]([C@@H](O)CO)C(OCCN2C(=O)c3ccccc3C2=O)=C1O` [3-O-(2-phthalimidoethyl)-L-ascorbic acid], the inhibition in vivo at 300 mg/kg in data set [2] (setting [5]) is 55%.

In data set [2] (setting [5]), `O=C1O[C@H]([C@@H](O)CO)C(OCc2cccc(Br)c2)=C1O` [3-O-(3-bromobenzyl)-L-ascorbic acid] gave an inhibition in vivo at 300 mg/kg of 74%. Besides, the pKa in data set [1] (read-out: pKa) worked out at 10.5. As to `O=C1O[C@H]([C@@H](O)CO)C(OCc2cccc(Cl)c2)=C1O` [3-O-(3-chlorobenzyl)-L-ascorbic acid], in data set [2] (setting [6]), the inhibition in vivo at 25 mg/kg turned out to be 41%. As to `CC1(C)OC[C@@H]([C@H]2OC(=O)C(O)=C2OCc2cccc(F)c2)O1` [3-O-(3-fluorobenzyl)-5,6-O-(1-methylethylidene)-L-ascorbic acid], the inhibition in vivo at 25 mg/kg in data set [2] (setting [3]) lay in the range of 27 to 82%. For `O=C1O[C@H]([C@@H](O)CO)C(OCc2cccc(F)c2)=C1O` [3-O-(3-fluorobenzyl)-L-ascorbic acid], the inhibition in vivo at 25 mg/kg in data set [2] (setting [6]) was 52%. Take `Cc1cccc(COC2=C(O)C(=O)O[C@@H]2[C@@H](O)CO)c1` [3-O-(3-methylbenzyl)-L-ascorbic acid]: the inhibition in vivo at 25 mg/kg in data set [2] (setting [6]) was 54%. `CC1(C)OC[C@@H]([C@H]2OC(=O)C(O)=C2OCCCOc2ccccc2)O1` [3-O-(3-phenoxypropyl)-5,6-O-(1-methylethylidene)-L-ascorbic acid] yielded an inhibition in vivo at 150 mg/kg in data set [2] (Mus musculus, ip, 24 h, Table 2, dose 150 mg./kg.) of 36%. For the same compound, the pKa in data set [1] (read-out: pKa) worked out at 10.7.

In the case of `O=C1O[C@H]([C@@H](O)CO)C(OCCCOc2ccccc2)=C1O` [3-O-(3-phenoxypropyl)-L-ascorbic acid], the inhibition in vivo at 300 mg/kg in data set [2] (setting [5]) stood at 68%.

Regarding `O=C(O)CCCCCCCCCCOC1=C(O)C(=O)O[C@@H]1[C@@H](O)CO` [3-O-(ω-hydroxycarbonyldecyl)-L-ascorbic acid], in data set [2] (setting [6]), the inhibition in vivo at 25 mg/kg came out at 41%. Take `CCCCOC1=C(O)C(=O)O[C@@H]1[C@@H]1COC(c2ccccc2)O1` (stereo partly drawn) [3-O-n-butyl-5,6-O-(benzylidene)-L-ascorbic acid]: in data set [2] (setting [4]), the inhibition in vivo at 150 mg/kg is 60%. On to `CCCCCCCCCCCCCCCCCCOC1=C(O)C(=O)O[C@@H]1[C@@H]1COC(C)(CCl)O1` (stereo partly drawn) [3-O-n-octadecyl-5,6-O-(1-chloromethylethylidene)-L-ascorbic acid], for which the pKa in data set [1] (read-out: pKa) came out at 9.

On to `CCCCCCCCCCCCCCCCCCOC1=C(O)C(=O)O[C@H]1[C@H](O)CO` [3-O-n-octadecyl-D-ascorbic acid], for which the pKa in data set [1] (read-out: pKa) amounted to 11. The same measure, in the same setting: next, `CCCCCCCCCCCCCCCOC1=C(O)C(=O)O[C@@H]1[C@@H]1COC(C)(C)O1` [3-O-n-pentadecyl-5,6-O-(1-methylethylidene)-L-ascorbic acid]: 10.9. Consider `CCCCCCCCCCCCCCCOC1=C(O)C(=O)O[C@@H]1[C@@H](O)CO` [3-O-n-pentadecyl-L-ascorbic acid], for which, in data set [2] (setting [5]), the inhibition in vivo at 300 mg/kg is 50%. Turning to `O=C1OC(C2COC(Cc3ccccc3)(Cc3ccccc3)O2)C(O)=C1O` [5,6-O-(1-benzyl-2-phenylethylidene)-L-ascorbic acid], in data set [1] (read-out: pKa), the pKa stood at 6.55. As for `CC1(CCl)OC[C@@H]([C@H]2OC(=O)C(O)=C2O)O1` (stereo partly drawn) [5,6-O-(1-chloromethylethylidene)-L-ascorbic acid], the pKa in data set [1] (read-out: pKa) was found to be 6.1. On the same count and under the same terms, for `CCCCCCCCCCC1OC[C@@H]([C@H]2OC(=O)C(O)=C2O)O1` (stereo partly drawn) [5,6-O-undecylidene-L-ascorbic acid] the value was 6.48. Regarding `O=C1O[C@H]([C@@H](O)CO)C(OCc2ccccc2Cl)=C1O` [R=2-chlorobenzyl, R^1=H (Table 1)], the “average % inhibition (serpentine vessels)” value in data set [2] (Table 1, i.p., dose 25 mg./kg., 24 hours) stood at 55%.

As to `CCOC(=O)COC1=C(O)C(=O)O[C@@H]1[C@@H]1COC(C)(C)O1` [R=C2 H5 OCOCH2, R^1=H (Table 2)], in data set [2] (setting [7]), the “% inhibition (serpentine vessels)” value turned out to be 12%. On to `COC1=C(O)C(=O)O[C@@H]1[C@@H]1COC(C)(C)O1` [R=methyl, R^1=H (Table 2)], for which the “% inhibition (serpentine vessels)” value in data set [2] (setting [7]) is 15%. As for `CCCCOC1=C(O)C(=O)O[C@@H]1[C@@H]1COC(C)(C)O1` [R=n-butyl, R^1=H (Table 2)], in data set [2] (setting [7]), the “% inhibition (serpentine vessels)” value came to 60%.

As for `CCCCCCCCCCOC1=C(O)C(=O)O[C@@H]1[C@@H]1COC(C)(C)O1` [R=n-decyl, R^1=H (Table 2)], the “% inhibition (serpentine vessels)” value in data set [2] (setting [7]) is on record as 48%. Consider `CCCCCCOC1=C(O)C(=O)O[C@@H]1[C@@H]1COC(C)(C)O1` [R=n-hexyl, R^1=H (Table 2)], for which the “% inhibition (serpentine vessels)” value in data set [2] (setting [7]) is recorded as 41%.
